According to PMC6271849, “Quantitative Analysis of the Flavonoid Glycosides and Terpene Trilactones in the Extract of Ginkgo biloba and Evaluation of Their Inhibitory Activity towards Fibril Formation of β-Amyloid Peptide” (Molecules, 2014):

Biological target: T1, amyloid β peptide (Aβ42) (Homo sapiens, UniProt P05067)
T1 construct: gene APP; Aβ42 peptide
Assay: biochemical

T1 sequence (P05067 672-713 limits assumed): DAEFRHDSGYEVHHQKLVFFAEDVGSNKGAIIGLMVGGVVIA

IC50 [µM]	Compound
67.1 ± 11.7	C[C@@H]1O[C@@H](Oc2c(-c3ccc(O)c(O)c3)oc3cc(O)cc(O)c3c2=O)[C@H](O[C@@H]2O[C@H](CO)[C@@H](O)[C@H](O)[C@H]2O)[C@H](O)[C@H]1O [compound 2, quercetin 3-O-α-L-(β-D-glucopyranosyl)-(1,2)-rhamnopyranoside]
32.6 ± 4.83	C[C@@H]1O[C@@H](Oc2c(-c3ccc(O)c(O)c3)oc3cc(O)cc(O)c3c2=O)[C@H](O[C@@H]2O[C@H](COC(=O)/C=C/c3ccc(O)cc3)[C@@H](O)[C@H](O)[C@H]2O)[C@H](O)[C@H]1O [compound 6, quercetin 3-O-α-(6′′′-p-coumaroylglucopyranosyl-β-1,2-rhamnopyranoside)]

Compound	IC50 [µM]
C[C@@H]1O[C@@H](OC[C@H]2O[C@@H](Oc3c(-c4ccc(O)c(O)c4)oc4cc(O)cc(O)c4c3=O)[C@H](O)[C@@H](O)[C@@H]2O)[C@H](O)[C@H](O)[C@H]1O [compound 1, quercetin 3-O-β-D-rutinoside]	33 ± 4.84
